The source of these data is article PMC12444507 (ACS Omega, 2025).

Data set [1] relates to SARS-CoV-2 strain JPN/TY/WK-521 (SARS-CoV-2^WK-521, ancestral Wuhan strain). The settings on record: cited from earlier work.
For data set [2] the test system is unchanged. The data set is classed as cell-based.
The subject of data set [3] is SARS-CoV-2^WK-521 infected VeroE6 cells.

`CC(C)(C)[C@H](NC(=O)C(F)(F)F)C(=O)N1C[C@H]2[C@@H]([C@H]1C(=O)N[C@H](C#N)C[C@@H]1CCNC1=O)C2(C)C` [nirmatrelvir (1), nirmatrelvir]: the EC50 in data set [1] is 770 ± 180 nM.

As to `CC(C)(C)[C@H](NC(=O)C(F)(F)F)C(=O)N1C[C@H]2[C@@H]([C@H]1C(=O)N[C@@H](C[C@@H]1CCNC1=O)C(=O)c1nc3c(Br)c(F)ccc3s1)C2(C)C` [Compound 15], in data set [2], the “lower potency than TKB272 (8)” value is “approximately 3 fold”. Take `CC(C)(C)[C@H](NC(=O)C(F)(F)F)C(=O)N1C[C@H]2[C@@H]([C@H]1C(=O)N[C@@H](C[C@@H]1CCNC1=O)C(=O)c1nc3cc(F)ccc3s1)C2(C)C` [TKB272 (8)]: the revertant mutagenicity result in the data set on bacterial mutation is listed as “no revertant mutagenicity”. Also, in data set [3], the “cytotoxicity in immunostaining experiments” value is “no significant cytotoxicity”.

The EC50 is the concentration needed to bring the measured effect to its halfway point.
